# Experimental data as given in US10294234B2, “HIV inhibitor compounds” (priority 2017, dated 2019).
# Where two headings read alike, the source gives them in different places.
# Tests used:
# [1] = system: HIV-1 (IIIB) in MT-4 cells; assay: MT-4 HIV assay; format: cell-based
# How it was run: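 Antiviral activity was read by Cell Titer Glo after a 5-day, 37 °C culture of MT-4 cells pre-infected with a 1:250 dilution of HIV-1 (IIIB). Compounds were tested as threefold dilution series in complete RPMI. Controls were no drug, mock infection and 5 uM AZT.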
# [2] = Procedure: Liver Microsomal Stability Protocol
# Test compounds and one control compound (verapamil) were tested in 3 different species in duplicate sets.
# Test compound concentration: 1 uM; Protein concentration: 0.5 mg/mL (for dog, rat, and human liver microsomes); Cofactor: NADPH-Regenerating system (NRS) solution; Time-points: 2, 12, 25, 45, and 65 minutes.
# Reaction composition (in each incubation well) contains:
# After plates were vortexed, they were centrifuged for 30 minutes to remove proteins. About 100 μL supernatant was removed to a new plate and diluted with 150 μL water. About 20 μL of the mixture was injected into LC/MS/MS system to monitor the compound's response. In vitro measured t1/2 was used to calculate Clint values.
# [3] = human liver microsomes 0.5 mg/mL, 1 uM compound, NADPH
# [4] = rat liver microsomes 0.5 mg/mL, 1 uM compound, NADPH
# [5] = Human immunodeficiency virus 1, MT4, 120 h, HIV-1 (IIIB), MT-4 cells, 5 days, Cell Titer Glo, read-out: EC50
Molecule,"EC50 ([1]; Human immunodeficiency virus 1, MT4, 120 h) [nM]","Human Pred Cl. [2, 3] [L/H/kg]","Rat. Pred. Cl. [2, 4] [L/H/kg]","EC50 [1, 5] [nM]","Dog. Pred. Cl. ([2]; dog, microsomes) [L/H/kg]","Human Pred Cl. ([2]; human, microsomes) [L/H/kg]","Rat. Pred. Cl. ([2]; rat, microsomes) [L/H/kg]","EC50 ([1]; HIV-1 (IIIB), MT-4 cells, 5 days, Cell Titer Glo, read-out: EC50) [nM]"
"COC(=O)N[C@H](C(=O)NN(Cc1c(F)cc(-c2ccn(C3CC3)n2)cc1F)C[C@H](O)[C@H](Cc1ccc(C#Cc2ccc(N3C[C@H]4C[C@@H]3CN4C3COC3)nc2)cc1)NC(=O)[C@@H](NC(=O)OC)C(C)(C)C(F)(F)F)C(C)(C)C [Example 90, Methyl ((5S,8S,9S,14S)-11-(4-(1-cyclopropyl-1H-pyrazol-3-yl)-2,6-difluorobenzyl)-9-hydroxy-15,15-dimethyl-8-(4-((6-((1R,4R)-5-(oxetan-3-yl)-2,5-diazabicyclo[2.2.1]heptan-2-yl)pyridin-3-yl)ethynyl)benzyl)-3,6,13-trioxo-5-(1,1,1-trifluoro-2-methylpropan-2-yl)-2-oxa-4,7,11,12-tetraazahexadecan-14-yl)carbamate]",3.45,0.14,0.67,,,,,
"COC(=O)N[C@H](C(=O)N[C@@H](Cc1ccc(C#Cc2cnc(N3CC4CCC(C3)N4C3COC3)nc2)cc1)[C@@H](O)CN(Cc1c(F)cc(-c2cnc(C)nc2)cc1F)NC(=O)[C@@H](NC(=O)OC)C(C)(C)C(F)(F)F)C(C)(C)C(F)(F)F [Example 119, Methyl ((5S,8S,9S,14S)-11-(2,6-difluoro-4-(2-methylpyrimidin-5-yl)benzyl)-16,16,16-trifluoro-9-hydroxy-15,15-dimethyl-8-(4-((2-(8-(oxetan-3-yl)-3,8-diazabicyclo[3.2.1]octan-3-yl)pyrimidin-5-yl)ethynyl)benzyl)-3,6,13-trioxo-5-(1,1,1-trifluoro-2-methylpropan-2-yl)-2-oxa-4,7,11,12-tetraazahexadecan-14-yl)carbamate]",,,,3.66,1.35,<0.11,0.27,
"Methyl ((5S,8S,9S,14S)-8-(4-((6-(3,8-diaza bicyclo[3.2.1]octan-3-yl)pyridin-3-yl)ethynyl)benzyl)-1-(4-(1-(difluoromethyl)-1H-pyrazol-3-yl)-2,6-difluorobenzyl)-16,16,16-trifluoro-9-hydroxy-15,15-dimethyl-3,6,13-trioxo-5-(1,1,1-trifluoro-2-methylpropan-2-yl)-2-oxa-4,7,11,12-tetraazahexadecan-14-yl)carbamate 2,2,2-trifluoroacetate [Example 161]",,<0.11,,,,,,14
"COC(=O)N[C@H](C(=O)N[C@@H](Cc1ccc(-c2ccc(N3CC4CCC(C3)N4C3COC3)nc2)cc1)[C@@H](O)CN(Cc1c(F)cc(-c2ccn(C3CC3)n2)cc1F)NC(=O)[C@@H](NC(=O)OC)C(C)(C)C(F)(F)F)C(C)(C)C(F)(F)F [Example 204, Methyl ((5S,8S,9S,14S)-11-(4-(1-cyclopropyl-1H-pyrazol-3-yl)-2,6-difluorobenzyl)-16,16,16-trifluoro-9-hydroxy-15,15-dimethyl-8-(4-(6-(8-(oxetan-3-yl)-3,8-diazabicyclo[3.2.1]octan-3-yl)pyridin-3-yl)benzyl)-3,6,13-trioxo-5-(1,1,1-trifluoro-2-methylpropan-2-yl)-2-oxa-4,7,11,12-tetraazahexadecan-14-yl)carbamate]",,,,3.18,,0.19,0.48,
"COC(=O)N[C@H](C(=O)N[C@@H](Cc1ccc(C#Cc2ccc(-c3cn4c(n3)CN(C)C(=O)C4)cc2)cc1)[C@@H](O)CN(Cc1c(F)cc(-c2cnn(C(F)F)c2)cc1F)NC(=O)[C@@H](NC(=O)OC)C(C)(C)C(F)(F)F)C(C)(C)C(F)(F)F [Example 69, Methyl ((5S,8S,9S,14S)-11-(4-(1-(difluoromethyl)-1H-pyrazol-4-yl)-2,6-difluorobenzyl)-16,16,16-trifluoro-9-hydroxy-15,15-dimethyl-8-(4-((4-(7-methyl-6-oxo-5,6,7,8-tetrahydroimidazo[1,2-a]pyrazin-2-yl)phenyl)ethynyl)benzyl)-3,6,13-trioxo-5-(1,1,1-trifluoro-2-methylpropan-2-yl)-2-oxa-4,7,11,12-tetraazahexadecan-14-yl)carbamate]",,<0.11,<0.18,3.24,,,,
